Data as given in PubChem BioAssay AID248 (DTP/NCI, 2004).
Toxic doses and inconclusive results are not listed.

Tested on: L1210 leukemia ip in BDF1 mice, survival T/C
Experiment: NCI In Vivo Anticancer Drug Screen. Data for tumor model L1210 Leukemia (intraperitoneal) in B6D2F1 (BDF1) mice
Conditions: endpoint: mean survival time, higher = longer survival
Outline: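 In this screen, tumor-bearing mice given compound are compared to those given vehicle, and their survival values are reported as a treated-to-control quotient.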

[1] = dose: 100.0 mg/kg/injection, schedule: Q01DX001 (ip), vehicle: saline
[2] = dose: 200.0 mg/kg/injection, schedule: Q01DX001 (ip), vehicle: saline
[3] = dose: 400.0 mg/kg/injection, schedule: Q01DX001 (ip), vehicle: saline
[4] = dose: 100.0 mg/kg/injection, schedule: Q01DX009 (ip), vehicle: Klucel (hydroxypropylcellulose) (HPC)
[5] = dose: 100.0 mg/kg/injection, schedule: Q04DX003 (ip), vehicle: Klucel (hydroxypropylcellulose) (HPC)
[6] = dose: 200.0 mg/kg/injection, schedule: Q01DX009 (ip), vehicle: Klucel (hydroxypropylcellulose) (HPC)
[7] = dose: 200.0 mg/kg/injection, schedule: Q04DX003 (ip), vehicle: Klucel (hydroxypropylcellulose) (HPC)
[8] = dose: 400.0 mg/kg/injection, schedule: Q01DX009 (ip), vehicle: Klucel (hydroxypropylcellulose) (HPC)
[9] = dose: 400.0 mg/kg/injection, schedule: Q04DX003 (ip), vehicle: Klucel (hydroxypropylcellulose) (HPC)
[10] = dose: 100.0 mg/kg/injection, schedule: Q04DX003 (ip), vehicle: saline
[11] = dose: 200.0 mg/kg/injection, schedule: Q04DX003 (ip), vehicle: saline
[12] = dose: 400.0 mg/kg/injection, schedule: Q04DX003 (ip), vehicle: saline
[13] = dose: 100.0 mg/kg/injection, schedule: Q01DX009 (ip), vehicle: saline with Tween-80
[14] = dose: 200.0 mg/kg/injection, schedule: Q01DX009 (ip), vehicle: saline with Tween-80
[15] = dose: 50.0 mg/kg/injection, schedule: Q04DX002 (ip), vehicle: saline with Tween-80
[16] = dose: 100.0 mg/kg/injection, schedule: Q04DX002 (ip), vehicle: saline with Tween-80
[17] = dose: 200.0 mg/kg/injection, schedule: Q04DX002 (ip), vehicle: saline with Tween-80
[18] = dose: 400.0 mg/kg/injection, schedule: Q04DX002 (ip), vehicle: saline with Tween-80

In the case of CCC1(O)CC2CN(CCc3c([nH]c4ccccc34)C(C(=O)OC)(c3cc4c(cc3OC)N(C)C3C(O)(C(N)=O)C(O)C5(CC)C=CCN6CCC43C65)C2)C1 (stereo not given) (tested in a mixture with another compound), the T/C (dose: 0.43 mg/kg/injection, schedule: Q01DX009 (ip), vehicle: saline) is reported as 124 % of control, the T/C (dose: 1.2 mg/kg/injection, schedule: Q01DX009 (ip), vehicle: saline) is reported as 97 % of control and the T/C (dose: 648.0 micrograms/kg/injection, schedule: Q04DX003 (ip), vehicle: saline) is reported as 123 % of control. The T/C (dose: 5000.0 micrograms/kg/injection, schedule: Q04DX003 (ip), vehicle: saline) was 111 % of control.
CCOC(=N)c1ccc(C(=O)OCCOC)cc1 was tested, and the T/C [1] was 97 % of control, the T/C [2] was 97 % of control and the T/C [3] was 97 % of control.
With CN(C)c1ccc(C(=O)C(O)c2ccccc2)cc1 (stereo not given) the T/C [4] was 92 % of control, the T/C [5] was 98 % of control and the T/C [6] was 88 % of control. The T/C [7] was 100 % of control, the T/C [8] was 88 % of control and the T/C [9] was 96 % of control.
In the case of O=C(O)C(Cc1ccc(O)c([N+](=O)[O-])c1)N1C(=O)c2ccccc2C1=O (stereo not given), the T/C [1] is reported as 101 % of control, the T/C [2] is reported as 95 % of control and the T/C [3] is reported as 95 % of control.
With Cc1cc2cc3n(c2nn1)N=C(Cl)CC3 the T/C (dose: 80.0 mg/kg/injection, schedule: Q04DX002 (ip), vehicle: Klucel (hydroxypropylcellulose) (HPC)) was 106 % of control, the T/C (dose: 160.0 mg/kg/injection, schedule: Q04DX002 (ip), vehicle: Klucel (hydroxypropylcellulose) (HPC)) was 118 % of control and the T/C (dose: 320.0 mg/kg/injection, schedule: Q04DX002 (ip), vehicle: Klucel (hydroxypropylcellulose) (HPC)) was 168 % of control.
For CC(=O)NC1CON(C(C)=O)C1=O (stereo not given), the T/C [5] was 97 % of control, the T/C [7] was 103 % of control and the T/C [9] was 103 % of control.
In the case of O=[N+]([O-])c1ccc(/C=N/C(/N=C/c2ccc([N+](=O)[O-])cc2)c2ccc([N+](=O)[O-])cc2)cc1, the T/C (dose: 75.0 mg/kg/injection, schedule: Q01DX009 (ip), vehicle: carboxymethylcellulose (CMC)) is reported as 94 % of control, the T/C (dose: 100.0 mg/kg/injection, schedule: Q04DX003 (ip), vehicle: carboxymethylcellulose (CMC)) is reported as 97 % of control and the T/C (dose: 150.0 mg/kg/injection, schedule: Q01DX009 (ip), vehicle: carboxymethylcellulose (CMC)) is reported as 90 % of control. The T/C (dose: 200.0 mg/kg/injection, schedule: Q04DX003 (ip), vehicle: carboxymethylcellulose (CMC)) was 95 % of control, the T/C (dose: 300.0 mg/kg/injection, schedule: Q01DX009 (ip), vehicle: carboxymethylcellulose (CMC)) was 92 % of control and the T/C (dose: 400.0 mg/kg/injection, schedule: Q04DX003 (ip), vehicle: carboxymethylcellulose (CMC)) was 92 % of control.
O=[N+]([O-])c1ccc(O)c(C=Nc2cnc3ccccc3c2)c1 was tested, and the T/C (dose: 100.0 mg/kg/injection, schedule: Q01DX001 (ip), vehicle: carboxymethylcellulose (CMC)) was 88 % of control, the T/C (dose: 200.0 mg/kg/injection, schedule: Q01DX001 (ip), vehicle: carboxymethylcellulose (CMC)) was 93 % of control and the T/C (dose: 400.0 mg/kg/injection, schedule: Q01DX001 (ip), vehicle: carboxymethylcellulose (CMC)) was 90 % of control.
In the case of CCOc1c(/C=N/NC(=O)c2ccccc2OC)cccc1OC, the T/C [4] is reported as 116 % of control, the T/C [5] is reported as 102 % of control and the T/C [6] is reported as 95 % of control. The T/C [7] was 105 % of control and the T/C [9] was 107 % of control.
In the case of COc1ccc(Cl)cc1NC(=O)Oc1ccc(NC(C)=O)cc1, the T/C [4] is reported as 96 % of control, the T/C [6] is reported as 102 % of control and the T/C [8] is reported as 98 % of control.
For N=Cc1c(O)[nH]c(=O)[nH]c1=O, the T/C (dose: 100.0 mg/kg/injection, schedule: Q01DX009 (ip), vehicle: saline) was 95 % of control, the T/C [10] was 97 % of control and the T/C (dose: 200.0 mg/kg/injection, schedule: Q01DX009 (ip), vehicle: saline) was 90 % of control. For the same compound, the T/C [11] was 93 % of control, the T/C (dose: 400.0 mg/kg/injection, schedule: Q01DX009 (ip), vehicle: saline) was 91 % of control and the T/C [12] was 95 % of control.
With CC(C)C(Br)C(=O)NCC(=O)NCC(=O)O (stereo not given) the T/C [13] was 93 % of control, the T/C [14] was 94 % of control and the T/C (dose: 400.0 mg/kg/injection, schedule: Q01DX009 (ip), vehicle: saline with Tween-80) was 92 % of control.
C/C=C(/C)N(C(C)=O)N(C(C)=O)c1ccc([N+](=O)[O-])cc1[N+](=O)[O-] was tested, and the T/C (dose: 100.0 mg/kg/injection, schedule: Q01DX009 (ip), vehicle: other) was 103 % of control, the T/C [10] was 104 % of control and the T/C (dose: 200.0 mg/kg/injection, schedule: Q01DX009 (ip), vehicle: other) was 101 % of control. For the same compound, the T/C [11] was 105 % of control, the T/C (dose: 400.0 mg/kg/injection, schedule: Q01DX009 (ip), vehicle: other) was 97 % of control and the T/C [12] was 107 % of control.
[B]N1C(C)=CC=CC1C (stereo not given) was tested, and the T/C (dose: 50.0 mg/kg/injection, schedule: Q01DX009 (ip), vehicle: saline with Tween-80) was 92 % of control, the T/C [13] was 92 % of control and the T/C [14] was 89 % of control.
In the case of BrC(Br)c1ccccc1C(Br)Br, the T/C (dose: 100.0 mg/kg/injection, schedule: Q01DX009 (ip), vehicle: gum acacia) is reported as 98 % of control, the T/C (dose: 100.0 mg/kg/injection, schedule: Q04DX003 (ip), vehicle: gum acacia) is reported as 99 % of control and the T/C (dose: 200.0 mg/kg/injection, schedule: Q01DX009 (ip), vehicle: gum acacia) is reported as 98 % of control. For the same compound, the T/C (dose: 200.0 mg/kg/injection, schedule: Q04DX003 (ip), vehicle: gum acacia) was 108 % of control and the T/C (dose: 400.0 mg/kg/injection, schedule: Q04DX003 (ip), vehicle: gum acacia) was 97 % of control.
c1cncc(-c2nnc(-c3cccnc3)o2)c1 was tested, and the T/C (dose: 12.5 mg/kg/injection, schedule: Q04DX002 (ip), vehicle: saline with Tween-80) was 124 % of control and the T/C [15] was 91 % of control.
In the case of CN=C1CC2CCC(C2)C1(O)c1ccccc1 (stereo not given), the T/C [1] is reported as 101 % of control.
Cc1c(NC(=O)Nc2ccc(C3=NCCCN3)cc2)cccc1NC(=O)Nc1ccc(C2=NCCCN2)cc1 was tested, and the T/C (dose: 4.0 mg/kg/injection, schedule: Q01DX Z (ip), vehicle: water) was 96 % of control, the T/C (dose: 6.0 mg/kg/injection, schedule: Q01DX Z (ip), vehicle: water) was 121 % of control and the T/C (dose: 8.0 mg/kg/injection, schedule: Q01DX Z (ip), vehicle: water) was 109 % of control. The T/C (dose: 25.0 mg/kg/injection, schedule: Q01DX Z (ip), vehicle: water) was 215 % of control, the T/C (dose: 31.0 mg/kg/injection, schedule: Q01DX Z (oral), vehicle: water) was 113 % of control and the T/C (dose: 50.0 mg/kg/injection, schedule: Q01DX Z (ip), vehicle: water) was 162 % of control. The T/C (dose: 100.0 mg/kg/injection, schedule: Q01DX Z (ip), vehicle: water) was 191 % of control and the T/C (dose: 125.0 mg/kg/injection, schedule: Q01DX Z (oral), vehicle: water) was 108 % of control.
With CCO/C(C)=N/OC(=O)c1cc(Cl)ccc1Cl the T/C (dose: 100.0 mg/kg/injection, schedule: Q04DX002 (ip), vehicle: Klucel (hydroxypropylcellulose) (HPC)) was 98 % of control, the T/C (dose: 200.0 mg/kg/injection, schedule: Q04DX002 (ip), vehicle: Klucel (hydroxypropylcellulose) (HPC)) was 110 % of control and the T/C (dose: 400.0 mg/kg/injection, schedule: Q04DX002 (ip), vehicle: Klucel (hydroxypropylcellulose) (HPC)) was 113 % of control.
With O=C(CCc1ccncc1)Nc1ccccc1 the T/C [5] was 100 % of control, the T/C [7] was 96 % of control and the T/C [9] was 100 % of control.
With O=C(O)CCC1CCC(=O)C1 (stereo not given) the T/C [15] was 102 % of control, the T/C [16] was 106 % of control and the T/C [17] was 98 % of control. The T/C [18] was 95 % of control.
NNC(=O)c1ccc(I)cc1 was tested, and the T/C [16] was 118 % of control, the T/C [17] was 118 % of control and the T/C [18] was 107 % of control.
For [Cu+2].[NH-]CC(=O)O.[NH-]CC(=O)O, the T/C (dose: 5.0 mg/kg/injection, schedule: Q04DX003 (ip), vehicle: saline) was 103 % of control, the T/C (dose: 10.0 mg/kg/injection, schedule: Q04DX003 (ip), vehicle: saline) was 99 % of control and the T/C (dose: 20.0 mg/kg/injection, schedule: Q04DX003 (ip), vehicle: saline) was 94 % of control.
OCC(O)c1ccccn1 (stereo not given) was tested, and the T/C [10] was 107 % of control, the T/C [11] was 94 % of control and the T/C [12] was 94 % of control.
COc1cccc(N=Cc2ccc(OC(=O)c3ccccc3)c(OC)c2)c1 was tested, and the T/C [4] was 91 % of control, the T/C [6] was 94 % of control and the T/C [8] was 92 % of control.
